Results taken from article PMC4992173, “Divergent synthesis and identification of the cellular targets of deoxyelephantopins” (Nature Communications, 2016).

Target: human PPARγ
Assay: Gel-based PPARγ binding kinetics (Kitz and Wilson)
Details: recombinant PPARγ, 10-60 min preincubation, 24c-Cy3 readout, n=3
Description: Briefly, recombinant human PPARγ was pretreated with compounds at 20 μM concentration followed by the probe 24c-Cy3. […] Assuming covalent bond formation with PPARγ, we applied the method of Kitz and Wilson[52] to determine the kinetic values Ki and kinact for deoxyelephantopin and compound 19a (Supplementary Fig. 17). We observed clear time-dependent shift in half-maximal inhibitory concentration (IC50) values characteristic for an irreversible mode of binding.
Supplementary figure 17: Determination of the kinetic values Ki and kinact for 19a and DEP as binders to human PPARγ (n = 3).
Supplementary figure 18: F γ
24c-Cy3 after pretreatment with 10 mM IAA or DMSO. […]
for 30 min. at 37 °C under 5% CO2 atmosphere. Cells were washed one time with PBS and fixed with 4% paraformaldehyde for 20 min. at r.t. Coverslips were washed three times with PBS, one time with water and then mounted on a slide with ProLong Gold antifade mountant with DAPI (Life Technologies). Cells were visualized with an LSM 700 confocal microscope […]
Annexin V and PI staining for cell microscopy. […]
In situ labeling experiments. […] Gels were visualized at 625 nm using a Hitachi FMBIO II Multi-View fluorescence scanner, then […]
visualization were performed as described above. Images were quantified with ImageJ and kinetics values were calculated using GraphPad Prism (V6.03). […]

| Compound | kinact/Ki |
| --- | --- |
| C=C(C)C(=O)O[C@H]1CC2=C[C@H](C/C=C\[C@H]3OC(=O)C(=C)[C@H]13)OC2=O [19a] | 1,241 M^−1 min^−1 |
| C=C(C)C(=O)O[C@H]1CC2=C[C@@H](C/C(C)=C/[C@H]3OC(=O)C(=C)[C@H]13)OC2=O [deoxyelephantopin] | 680 M⁻¹ min⁻¹ |
